{"source": "patent US10413512B2", "about": "“Nicotine-containing granulate” (priority 2008, dated 2019)", "origin": "cited, not measured here", "key": {"[1]": {"conditions": "base form"}, "[2]": {"conditions": "oral administration"}, "[3]": {"conditions": "in vivo"}}, "data": [{"smiles": "CN1CCC[C@H]1c1cccnc1", "note": "[Nicotine, (S)-3-(1-Methyl-2-pyrrolidinyl)pyridine]", "values": [{"measurement": "miscibility with water", "setting": "[1]", "value": "miscible with water"}, {"measurement": "oral bioavailability", "setting": "[2]", "value": "about 30%"}, {"measurement": "half life in the body", "setting": "[3]", "value": "around two"}]}]}
